Test results taken from ChEMBL document CHEMBL3784999, “Investigation of 4-amino-5-alkynylpyrimidine-2(1H)-ones as anti-mycobacterial agents” (Bioorg Med Chem, 2016).
Active and inactive are the calls of the source. No cut-off for these calls is given here.

How the values were obtained:
[1] = tested on: Mycobacterium tuberculosis; assay: Antimycobacterial activity against Mycobacterium tuberculosis H37Ra infected in BALB/c mouse assessed as reduction of bacterial load in lung at 6.25 to 6.25 mg/kg, po administered for 2 weeks started on day 4 post bacterial infection measured 3 days post last dose; type: functional, organism-based
[2] = tested on: Mycobacterium tuberculosis; assay: Ratio MIC90 for Mycobacterium tuberculosis H37Ra in presence of isoniazid to MIC90 for Mycobacterium tuberculosis H37Ra in absence of isoniazid; type: functional
Mus musculus [3] = assay: Toxicity in BALB/c mouse infected with Mycobacterium tuberculosis H37Ra assessed as change in urea level in serum at 6.25 to 25 mg/kg, po administered for 2 weeks started on day 4 post bacterial infection; type: organism-based; settings: in vivo, 336 h
[4] = tested on: Mycobacterium tuberculosis; assay: Antimycobacterial activity against Mycobacterium tuberculosis H37Ra assessed as inhibition of mycobacterial replication at 50 ug/ml after 6 days by microplate Alamar blue assay; type: functional; settings: 144 h
Mus musculus [5] = assay: Toxicity in BALB/c mouse infected with Mycobacterium tuberculosis H37Ra assessed as change in creatinine level in serum at 6.25 to 25 mg/kg, po administered for 2 weeks started on day 4 post bacterial infection; type: organism-based; settings: in vivo, 336 h
[6] = Cytotoxicity against African green monkey Vero cells assessed as cell viability after 3 days by XTT assay; type: cell-based; settings: chlorocebus sabaeus
[7] = tested on: Mycobacterium tuberculosis; assay: Antimycobacterial activity against Mycobacterium tuberculosis H37Ra infected in BALB/c mouse assessed as reduction of bacterial load in lung at 12.5 mg/kg, po administered for 2 weeks started on day 4 post bacterial infection measured 3 days post last dose co-treated with 1 mg/kg, po isoniazid; type: functional
Mus musculus [8] = assay: Toxicity in BALB/c mouse infected with Mycobacterium tuberculosis H37Ra assessed as behavioral changes at 6.25 to 25 mg/kg, po administered for 2 weeks started on day 4 post bacterial infection; type: organism-based; settings: in vivo, 336 h
[9] = tested on: Mycobacterium tuberculosis; assay: Antimycobacterial activity against Mycobacterium tuberculosis H37Ra infected in BALB/c mouse assessed as reduction in bacterial activity in lung at 6.25 mg/kg, po administered for 2 weeks started on day 4 post bacterial infection measured 3 days post last dose co-treated with 1 mg/kg, po isoniazid; type: functional
Mus musculus [10] = assay: Toxicity in BALB/c mouse infected with Mycobacterium tuberculosis H37Ra assessed as change in calcium level in serum at 6.25 to 25 mg/kg, po administered for 2 weeks started on day 4 post bacterial infection; type: organism-based; settings: in vivo, 336 h
Mus musculus [11] = assay: Toxicity in BALB/c mouse infected with Mycobacterium tuberculosis H37Ra assessed as change in phosphate level in serum at 6.25 to 25 mg/kg, po administered for 2 weeks started on day 4 post bacterial infection in presence of isoniazid; type: organism-based; settings: in vivo, 336 h
[12] = tested on: Mycobacterium tuberculosis; assay: Antimycobacterial activity against Mycobacterium tuberculosis H37Ra assessed as inhibition of mycobacterial replication at 6.25 ug/ml after 6 days by microplate Alamar blue assay in absence of isoniazid; type: functional, organism-based
Mus musculus [13] = assay: Toxicity in BALB/c mouse infected with Mycobacterium tuberculosis H37Ra assessed as change in alkaline phosphatase level in serum at 6.25 to 25 mg/kg, po administered for 2 weeks started on day 4 post bacterial infection in presence of isoniazid; type: organism-based; settings: in vivo, 336 h
Mus musculus [14] = assay: Toxicity in BALB/c mouse infected with Mycobacterium tuberculosis H37Ra assessed as change in phosphate level in serum at 6.25 to 25 mg/kg, po administered for 2 weeks started on day 4 post bacterial infection; type: organism-based; settings: in vivo, 336 h
Mus musculus [15] = assay: Toxicity in BALB/c mouse infected with Mycobacterium tuberculosis H37Ra assessed as change in urea level in serum at 6.25 to 25 mg/kg, po administered for 2 weeks started on day 4 post bacterial infection in presence of isoniazid; type: organism-based; settings: in vivo, 336 h
Mus musculus [16] = assay: Toxicity in BALB/c mouse infected with Mycobacterium tuberculosis H37Ra assessed as change in cholesterol level in serum at 6.25 to 25 mg/kg, po administered for 2 weeks started on day 4 post bacterial infection; type: organism-based; settings: in vivo, 336 h
[17] = tested on: Mycobacterium tuberculosis; assay: Antimycobacterial activity against Mycobacterium tuberculosis H37Ra infected in BALB/c mouse assessed as reduction of bacterial load in liver at 6.25 to 6.25 mg/kg, po administered for 2 weeks started on day 4 post bacterial infection measured 3 days post last dose; type: functional, organism-based
Mus musculus [18] = assay: Toxicity in BALB/c mouse infected with Mycobacterium tuberculosis H37Ra assessed as weight loss at 6.25 to 25 mg/kg, po administered for 2 weeks started on day 4 post bacterial infection in presence of isoniazid; type: organism-based; settings: in vivo, 336 h
[19] = tested on: Mycobacterium tuberculosis; assay: Antimycobacterial activity against Mycobacterium tuberculosis H37Ra infected in BALB/c mouse assessed as reduction of bacterial load in lung at 25 mg/kg, po administered for 2 weeks started on day 4 post bacterial infection measured 3 days post last dose; type: functional
[20] = tested on: Mycobacterium tuberculosis; assay: Antimycobacterial activity against Mycobacterium tuberculosis H37Ra assessed as inhibition of mycobacterial replication at 25 ug/ml after 6 days by microplate Alamar blue assay; type: functional; settings: 144 h
Mus musculus [21] = assay: Toxicity in BALB/c mouse infected with Mycobacterium tuberculosis H37Ra assessed as change in amylase level in serum at 6.25 to 25 mg/kg, po administered for 2 weeks started on day 4 post bacterial infection; type: organism-based; settings: in vivo, 336 h
[22] = tested on: Mycobacterium tuberculosis; assay: Antimycobacterial activity against Mycobacterium tuberculosis H37Ra infected in BALB/c mouse assessed as reduction in bacterial activity in spleen at 6.25 mg/kg, po administered for 2 weeks started on day 4 post bacterial infection measured 3 days post last dose co-treated with 1 mg/kg, po isoniazid; type: functional
[23] = tested on: Mycobacterium tuberculosis; assay: Antimycobacterial activity against Mycobacterium tuberculosis H37Ra assessed as inhibition of mycobacterial replication at 200 ug/ml after 6 days by microplate Alamar blue assay; type: functional; settings: 144 h
Mus musculus [24] = assay: Toxicity in BALB/c mouse infected with Mycobacterium tuberculosis H37Ra assessed as weight loss at 6.25 to 25 mg/kg, po administered for 2 weeks started on day 4 post bacterial infection; type: organism-based; settings: in vivo, 336 h
[25] = tested on: Mycobacterium tuberculosis; assay: Antimycobacterial activity against Mycobacterium tuberculosis H37Ra infected in BALB/c mouse assessed as reduction of bacterial load in spleen at 6.25 to 6.25 mg/kg, po administered for 2 weeks started on day 4 post bacterial infection measured 3 days post last dose; type: functional, organism-based
Mus musculus [26] = assay: Toxicity in BALB/c mouse infected with Mycobacterium tuberculosis H37Ra assessed as change in cholesterol level in serum at 6.25 to 25 mg/kg, po administered for 2 weeks started on day 4 post bacterial infection in presence of isoniazid; type: organism-based; settings: in vivo, 336 h
Mus musculus [27] = assay: Toxicity in BALB/c mouse infected with Mycobacterium tuberculosis H37Ra assessed as change in alkaline phosphatase level in serum at 6.25 to 25 mg/kg, po administered for 2 weeks started on day 4 post bacterial infection; type: organism-based; settings: in vivo, 336 h
Mus musculus [28] = assay: Toxicity in BALB/c mouse infected with Mycobacterium tuberculosis H37Ra assessed as change in amylase level in serum at 6.25 to 25 mg/kg, po administered for 2 weeks started on day 4 post bacterial infection in presence of isoniazid; type: organism-based; settings: in vivo, 336 h
Mus musculus [29] = assay: Toxicity in BALB/c mouse infected with Mycobacterium tuberculosis H37Ra at 6.25 to 25 mg/kg, po administered for 2 weeks started on day 4 post bacterial infection by necroscopy; type: organism-based; settings: in vivo, 336 h
[30] = tested on: Mycobacterium tuberculosis; assay: Antimycobacterial activity against Mycobacterium tuberculosis H37Ra infected in BALB/c mouse assessed as reduction of bacterial load in spleen at 25 mg/kg, po administered for 2 weeks started on day 4 post bacterial infection measured 3 days post last dose; type: functional

## CCCCCC#Cc1c[nH]c(=O)nc1N
[1]
  Activity: inactive
[2]
  fractional inhibitory concentration index (FICI): 0.37
Mus musculus [3]
  Activity: Non-toxic
[4]
  inhibition at 50 µg/mL: 100%
Mus musculus [5]
  Activity: Non-toxic
[6]
  CC50 at 72 h: > 200 µg/mL
[7]
  inhibition (INH): 95%
Mus musculus [8]
  Activity: Non-toxic
[9]
  inhibition (INH): 70%
Mus musculus [10]
  Activity: Non-toxic
Mus musculus [11]
  Activity: Non-toxic
[12]
  inhibition: inactive
Mus musculus [13]
  Activity: Non-toxic
Mus musculus [14]
  Activity: Non-toxic
Mus musculus [15]
  Activity: Non-toxic
Mus musculus [16]
  Activity: Non-toxic
[17]
  Activity: inactive
Mus musculus [18]
  Activity: Non-toxic
[19]
  inhibition in vivo at 25 mg/kg: 79%
[20]
  inhibition at 25 µg/mL: 90%
Mus musculus [21]
  Activity: Non-toxic
[22]
  inhibition (INH): 40%
[23]
  inhibition at 200 µg/mL: 100%
Mus musculus [24]
  Activity: Non-toxic
[25]
  Activity: inactive
Mus musculus [26]
  Activity: Non-toxic
Mus musculus [27]
  Activity: Non-toxic
Mus musculus [28]
  Activity: Non-toxic
Mus musculus [29]
  Activity: Non-toxic
[30]
  inhibition in vivo at 25 mg/kg: 51%
